Results as given in the NIST ThermoML archive (doi:10.1021/je050402s).
Numbers after ± are expanded uncertainties.

How the values were obtained:
[1] = xn = mol fraction of the nth substance listed; settings: 100.5 kPa, Liquid, x2 = 0
[2] = 100.5 kPa, Liquid
[3] = 288.15 K, Capillary tube (Ostwald / Ubbelohde) method
[4] = 298.15 K, Capillary tube (Ostwald / Ubbelohde) method
[5] = 308.15 K, Capillary tube (Ostwald / Ubbelohde) method
[6] = 318.15 K, Capillary tube (Ostwald / Ubbelohde) method

SMILES | viscosity [1, 3] [mPa·s] | mass density ([1]; 288.15 K) [kg/m3] | viscosity [1, 4] [mPa·s] | mass density ([1]; 298.15 K) [kg/m3] | viscosity [1, 5] [mPa·s] | mass density ([1]; 308.15 K) [kg/m3] | viscosity [1, 6] [mPa·s] | mass density ([1]; 318.15 K) [kg/m3] | mass density ([2]; 288.15 K) [kg/m3] | viscosity [2, 3] [mPa·s] | mass density ([2]; 298.15 K) [kg/m3] | viscosity [2, 4] [mPa·s] | mass density ([2]; 308.15 K) [kg/m3] | viscosity [2, 5] [mPa·s] | mass density ([2]; 318.15 K) [kg/m3] | viscosity [2, 6] [mPa·s] | further results
CCO [ethanol] + CCC(=O)OCc1ccccc1 | 1.337 ± 0.014 | 793.6 ± 0.45 | 1.105 ± 0.014 | 785 ± 0.46 | 0.921 ± 0.013 | 776.31 ± 0.48 | 0.771 ± 0.013 | 767.44 ± 0.49 | – | – | – | – | – | – | – | – | –
CCO [ethanol] + CCOC(=O)c1ccccc1O | – | 793.6 ± 0.45 | – | 785 ± 0.46 | – | 776.31 ± 0.48 | – | 767.44 ± 0.49 | – | – | – | – | – | – | – | – | viscosity ([1]; 288.15 K): 1.337 ± 0.019 mPa·s; viscosity ([1]; 298.15 K): 1.105 ± 0.017 mPa·s; viscosity ([1]; 308.15 K): 0.921 ± 0.016 mPa·s; viscosity ([1]; 318.15 K): 0.771 ± 0.015 mPa·s
COC(=O)c1ccccc1 [methyl benzoate] | – | – | – | – | – | – | – | – | 1093.23 ± 0.52 | 2.297 ± 0.019 | 1083.92 ± 0.51 | 1.851 ± 0.017 | 1074.34 ± 0.5 | 1.531 ± 0.016 | 1064.62 ± 0.49 | 1.297 ± 0.015 | –
CCOC(=O)CC(C)C [ethyl 3-methylbutanoate] | – | – | – | – | – | – | – | – | 869.66 ± 0.55 | 0.853 ± 0.014 | 859.78 ± 0.55 | 0.739 ± 0.013 | 849.83 ± 0.56 | 0.642 ± 0.013 | 839.81 ± 0.57 | 0.566 ± 0.013 | –
CCO [ethanol] | – | – | – | – | – | – | – | – | 793.6 ± 0.45 | 1.337 ± 0.014 | 785 ± 0.46 | 1.105 ± 0.014 | 776.31 ± 0.48 | 0.921 ± 0.013 | 767.44 ± 0.49 | 0.771 ± 0.013 | –
CCO [ethanol] + COC(=O)c1ccccc1 | 1.337 ± 0.014 | 793.6 ± 0.45 | 1.105 ± 0.014 | 785 ± 0.46 | 0.921 ± 0.013 | 776.31 ± 0.48 | 0.771 ± 0.013 | 767.44 ± 0.49 | – | – | – | – | – | – | – | – | –
CCO [ethanol] + CCOC(=O)CC(C)C | 1.337 ± 0.014 | 793.6 ± 0.45 | 1.105 ± 0.014 | 785 ± 0.46 | 0.921 ± 0.013 | 776.31 ± 0.48 | 0.771 ± 0.013 | 767.44 ± 0.49 | – | – | – | – | – | – | – | – | –
CCO [ethanol] + CCOC(=O)CC(C)=O | 1.337 ± 0.014 | 793.6 ± 0.45 | 1.105 ± 0.014 | 785 ± 0.46 | 0.921 ± 0.013 | 776.31 ± 0.48 | 0.771 ± 0.013 | 767.44 ± 0.49 | – | – | – | – | – | – | – | – | –
CCO [ethanol] + CC(=O)OCc1ccccc1 | 1.337 ± 0.014 | 793.6 ± 0.45 | 1.105 ± 0.014 | 785 ± 0.46 | 0.921 ± 0.013 | 776.31 ± 0.48 | 0.771 ± 0.013 | 767.44 ± 0.49 | – | – | – | – | – | – | – | – | –
CCOC(=O)CC(C)=O [ethyl 3-oxobutanoate] | – | – | – | – | – | – | – | – | 1033.92 ± 0.45 | 1.902 ± 0.017 | 1023.45 ± 0.44 | 1.581 ± 0.016 | 1013 ± 0.43 | 1.344 ± 0.015 | 1002.54 ± 0.43 | 1.144 ± 0.014 | –
CCOC(=O)c1ccccc1O [ethyl 2-hydroxybenzoate] | – | – | – | – | – | – | – | – | 1134.72 ± 0.41 | – | 1125 ± 0.39 | – | 1115.29 ± 0.38 | – | 1105.6 ± 0.37 | – | viscosity ([2]; 288.15 K): 3.694 ± 0.041 mPa·s; viscosity ([2]; 298.15 K): 2.831 ± 0.032 mPa·s; viscosity ([2]; 308.15 K): 2.253 ± 0.027 mPa·s; viscosity ([2]; 318.15 K): 1.842 ± 0.023 mPa·s
CCC(=O)OCc1ccccc1 [benzyl propanoate] | – | – | – | – | – | – | – | – | 1036.86 ± 0.36 | 2.55 ± 0.019 | 1027.6 ± 0.35 | 2.123 ± 0.018 | 1018.38 ± 0.34 | 1.787 ± 0.016 | 1009.15 ± 0.34 | 1.515 ± 0.015 | –
CC(=O)OCc1ccccc1 [benzyl ethanoate] | – | – | – | – | – | – | – | – | 1060.11 ± 0.31 | 2.53 ± 0.018 | 1050.75 ± 0.29 | 2.056 ± 0.017 | 1041.39 ± 0.28 | 1.703 ± 0.015 | 1032.03 ± 0.27 | 1.432 ± 0.015 | –
